Data taken from patent publication US5043450A, “8-alkoxyquinolonecarboxylic acid and salts thereof” (priority 1986, dated 1991).
In brackets after ≈: the same amount, converted by molar mass. Where two headings read alike, the source gives them in different places.

What was measured:
Format in all cases: cell-based
S. aureus Smith = assay: Antibacterial spectra, MIC; details: Staphylococcus aureus
[1] = tested on: Pseudomonas aeruginosa V-1; assay: Antibacterial spectra, MIC; details: V1
[2] = tested on: Bacteroides fragilis GM 7000; assay: Antibacterial spectra, MIC
[3] = tested on: Propionibacterium acens 11828; assay: Antibacterial spectra, MIC; details: 10^6 cells/ml, Gram +, read-out: MIC
Pst. micros UPI 5464-1 = assay: Antibacterial spectra, MIC; details: Parvimonas micra, UPI54641
B. distasonis 8503 = assay: Antibacterial spectra, MIC; details: Parabacteroides distasonis, 10^6 cells/ml, Gram -, read-out: MIC
[4] = tested on: Peptostreptococcus anaerobius KYA 27337; assay: Antibacterial spectra, MIC
[5] = tested on: Klebsiella pneumoniae KY(GN)6445; assay: Antibacterial spectra, MIC
K. pneumoniae 1-220S = assay: Antibacterial spectra, MIC; details: Klebsiella pneumoniae, 1220S
[6] = tested on: Yersinia enterocolitica IID 981; assay: Antibacterial spectra, MIC; details: IID981
[7] = tested on: Escherichia coli NIHJ JC-2; assay: Antibacterial spectra, MIC; details: NIHJJC2
C. ramosum = assay: Antibacterial spectra, MIC; details: Thomasclavelia ramosa; 10^6 cells/ml; Gram +; read-out: MIC
Bacilus subtilis PCI 219 = assay: Antibacterial spectra, MIC; details: Bacillus subtilis, PCI219
[8] = tested on: Staphylococcus aureus 209 P; assay: Antibacterial spectra, MIC
C. perfringens KYA 13123 = assay: microbe, parasite or virus in culture; details: Clostridium perfringens, KYA13123
[9] = tested on: Morganella morganii IID 602; assay: Antibacterial spectra, MIC; details: IID602
S. pneumoniae IID 552 = assay: Antibacterial spectra, MIC; details: Streptococcus pneumoniae, IID552
P. mirabilis IID 994 = assay: Antibacterial spectra, MIC; details: Proteus mirabilis, IID994
[10] = tested on: S. aureus IID 670 (Terajima); assay: Antibacterial spectra, MIC; details: Staphylococcus aureus, IID670
[11] = tested on: B. thetaiotaomicron (0661); assay: Antibacterial spectra, MIC; details: Bacteroides thetaiotaomicron; 10^6 cells/ml; Gram -; read-out: MIC
P. maltophilia GIFU 2491 = assay: Antibacterial spectra, MIC; details: Stenotrophomonas maltophilia, GIFU2491
P. aeruginosa IID 1210 = assay: Antibacterial spectra, MIC; details: Pseudomonas aeruginosa, IID1210; 10^6 cells/ml; Gram -; read-out: MIC
P. aeruginosa IFO 12689 = assay: Antibacterial spectra, MIC; details: Pseudomonas aeruginosa, IFO12689; 10^6 cells/ml; Gram -; read-out: MIC
B. fragilis 25285 = assay: Antibacterial spectra, MIC; details: Bacteroides fragilis
[12] = tested on: Eubacterium lentum GAI 5242; assay: Antibacterial spectra, MIC; details: Eggerthella lenta, GAI5242
F. varium KYA 8501 = assay: Antibacterial spectra, MIC; details: Fusobacterium varium, KYA8501; 10^6 cells/ml; Gram -; read-out: MIC
B. fragilis 0558 = assay: Antibacterial spectra, MIC; details: Bacteroides fragilis
[13] = tested on: Citrobacter freundii IID 976; assay: Antibacterial spectra, MIC; details: IID976
S. pyogenes IID 692 = assay: Antibacterial spectra, MIC; details: Streptococcus pyogenes, IID692
[14] = tested on: Salmonella enteritidis IID 604; assay: Antibacterial spectra, MIC; details: Salmonella enterica
F. necrophorum S-45 = assay: Antibacterial spectra, MIC; details: Fusobacterium necrophorum, S45; 10^6 cells/ml; Gram -; read-out: MIC
[15] = tested on: Serratia marcescens IID 618; assay: Antibacterial spectra, MIC; details: IID618
[16] = tested on: Peptococcus magnus KY 017; assay: Antibacterial spectra, MIC; details: Finegoldia magna, KY017
[17] = tested on: Fusobacterium mortiferum 4249; assay: Antibacterial spectra, MIC
[18] = tested on: Acinetobacter anitratus IID 876; assay: Antibacterial spectra, MIC; details: Acinetobacter calcoaceticus, IID876
E. coli ML 4707 = assay: Antibacterial spectra, MIC; details: Escherichia coli, ML4707; 10^6 cells/ml; Gram -
Experimental: (§1) The antibacterial test was carried out according to the method designated by Japan Society of Chemotherapy.

Shigella sonnei IID 969 = assay: Antibacterial spectra, MIC; details: IID969, 10^6 cells/ml, Gram -
Experimental: as §1

[19] = tested on: Streptococcus pyogenes (S-8); assay: Antibacterial spectra, MIC; details: 10^6 cells/ml, Gram +
Experimental: as §1

E. faecalis IID 682 = assay: Antibacterial spectra, MIC; details: Enterococcus faecalis, IID682; 10^6 cells/ml; Gram +
Experimental: as §1

[20] = tested on: Proteus vulgaris IFO 3167; assay: Antibacterial spectra, MIC; details: IFO3167, 10^6 cells/ml, Gram -
Experimental: as §1

E. coli ATCC 10536 = assay: Antibacterial spectra, MIC; details: Escherichia coli, ATCC10536
B. vulgatus KYA 29327 = assay: Antibacterial spectra, MIC; details: Phocaeicola vulgatus, KYA29327
[21] = tested on: Enterobacter cloacae IID 977; assay: Antibacterial spectra, MIC; details: IID977
[22] = tested on: Veillonella parvula KYA 10790; assay: Antibacterial spectra, MIC; details: KYA10790
[23] = tested on: Alcaligenes faecalis 0114002; assay: Antibacterial spectra, MIC
P. cepacia GIFU 518 = assay: Antibacterial spectra, MIC; details: Burkholderia cepacia, GIFU518; 10^6 cells/ml; Gram -; read-out: MIC
[24] = 10^6 cells/ml, Gram -, read-out: MIC

Compound: COc1c(N2CCNCC2)c(F)c(N)c2c(=O)c(C(=O)O)cn(C3CC3)c12 [Exp. 10, 5-amino-1-cyclopropyl-6-fluoro-1,4-dihydro-8-methoxy-4-oxo-7-(1-piperazinyl)-3-quinolinecarboxylic acid]
- MIC (S. aureus Smith): 0.1 µg/mL (≈ 0.266 µM)
- MIC [1]: 0.39 µg/mL (≈ 1.04 µM)
- MIC ([2]; GM7000): 3.13 µg/mL (≈ 8.32 µM)
- MIC [3]: 12.5 µg/mL (≈ 33.2 µM)
- MIC (Pst. micros UPI 5464-1): 0.39 µg/mL (≈ 1.04 µM)
- MIC (B. distasonis 8503): 6.25 µg/mL (≈ 16.6 µM)
- MIC ([4]; KYA27337, 10^6 cells/ml, Gram +, read-out: MIC): 1.56 µg/mL (≈ 4.14 µM)
- MIC [5]: 0.05 µg/mL (≈ 0.133 µM)
- MIC (K. pneumoniae 1-220S): 0.2 µg/mL (≈ 0.531 µM)
- MIC [6]: 0.2 µg/mL (≈ 0.531 µM)
- MIC [7]: 0.025 µg/mL (≈ 0.0664 µM)
- MIC (C. ramosum): 1.56 µg/mL (≈ 4.14 µM)
- MIC (Bacilus subtilis PCI 219): 0.025 µg/mL (≈ 0.0664 µM)
- MIC [8]: 0.05 µg/mL (≈ 0.133 µM)
- MIC (C. perfringens KYA 13123): 3.13 µg/mL (≈ 8.32 µM)
- MIC [9]: 0.2 µg/mL (≈ 0.531 µM)
- MIC (S. pneumoniae IID 552): > 0.78 µg/mL
- MIC (P. mirabilis IID 994): 0.2 µg/mL (≈ 0.531 µM)
- MIC [10]: 0.1 µg/mL (≈ 0.266 µM)
- MIC [11]: 6.25 µg/mL (≈ 16.6 µM)
- MIC (P. maltophilia GIFU 2491): 0.2 µg/mL (≈ 0.531 µM)
- MIC (P. aeruginosa IID 1210): 1.56 µg/mL (≈ 4.14 µM)
- MIC (P. aeruginosa IFO 12689): 1.56 µg/mL (≈ 4.14 µM)
- MIC (B. fragilis 25285): 3.13 µg/mL (≈ 8.32 µM)
- MIC [12]: 0.78 µg/mL (≈ 2.07 µM)
- MIC (F. varium KYA 8501): 50 µg/mL (≈ 133 µM)
- MIC (B. fragilis 0558): 3.13 µg/mL (≈ 8.32 µM)
- MIC [13]: 0.05 µg/mL (≈ 0.133 µM)
- MIC (S. pyogenes IID 692): > 0.78 µg/mL
- MIC [14]: 0.2 µg/mL (≈ 0.531 µM)
- MIC (F. necrophorum S-45): 1.56 µg/mL (≈ 4.14 µM)
- MIC [15]: 0.2 µg/mL (≈ 0.531 µM)
- MIC ([16]; 10^6 cells/ml, Gram +, read-out: MIC): 1.56 µg/mL (≈ 4.14 µM)
- MIC [17, 24]: 1.56 µg/mL (≈ 4.14 µM)
- MIC [18]: 0.1 µg/mL (≈ 0.266 µM)
- MIC (E. coli ML 4707): 0.05 µg/mL (≈ 0.133 µM)
- MIC (Shigella sonnei IID 969): 0.025 µg/mL (≈ 0.0664 µM)
- MIC [19]: 0.39 µg/mL
- MIC (E. faecalis IID 682): 0.39 µg/mL
- MIC [20]: 0.1 µg/mL (≈ 0.266 µM)
- MIC (E. coli ATCC 10536): 0.05 µg/mL (≈ 0.133 µM)
- MIC (B. vulgatus KYA 29327): 0.39 µg/mL (≈ 1.04 µM)
- MIC [21]: 0.2 µg/mL (≈ 0.531 µM)
- MIC [22]: 0.39 µg/mL (≈ 1.04 µM)
- MIC [23]: 0.78 µg/mL (≈ 2.07 µM)
- MIC (P. cepacia GIFU 518): 1.56 µg/mL (≈ 4.14 µM)

Compound: COc1c(N2CCC(N)C2)c(F)c(N)c2c(=O)c(C(=O)O)cn(C3CC3)c12 (centres unmarked) [Exp. 11, 5-amino-7-(3-amino-1-pyrrolidinyl)-1-cyclopropyl-6-fluoro-1,4-dihydro-8-methoxy-4-oxo-3-quinolinecarboxylic acid]
- MIC (S. aureus Smith): 0.025 µg/mL (≈ 0.0664 µM)
- MIC [1]: 0.78 µg/mL (≈ 2.07 µM)
- MIC ([2]; GM7000, 10^6 cells/ml, Gram -, read-out: MIC): 1.56 µg/mL (≈ 4.14 µM)
- MIC [3]: 6.25 µg/mL (≈ 16.6 µM)
- MIC (Pst. micros UPI 5464-1): 0.78 µg/mL (≈ 2.07 µM)
- MIC (B. distasonis 8503): 12.5 µg/mL (≈ 33.2 µM)
- MIC ([4]; KYA27337): 0.78 µg/mL (≈ 2.07 µM)
- MIC [5]: 0.05 µg/mL (≈ 0.133 µM)
- MIC (K. pneumoniae 1-220S): 0.2 µg/mL (≈ 0.531 µM)
- MIC [6]: 0.1 µg/mL (≈ 0.266 µM)
- MIC [7]: 0.025 µg/mL (≈ 0.0664 µM)
- MIC (C. ramosum): 1.56 µg/mL (≈ 4.14 µM)
- MIC (Bacilus subtilis PCI 219): 0.0125 µg/mL (≈ 0.0332 µM)
- MIC [8]: 0.025 µg/mL (≈ 0.0664 µM)
- MIC (C. perfringens KYA 13123): 0.78 µg/mL (≈ 2.07 µM)
- MIC [9]: 0.2 µg/mL (≈ 0.531 µM)
- MIC (S. pneumoniae IID 552): 0.2 µg/mL (≈ 0.531 µM)
- MIC (P. mirabilis IID 994): 0.1 µg/mL (≈ 0.266 µM)
- MIC [10]: 0.05 µg/mL (≈ 0.133 µM)
- MIC [11]: 1.56 µg/mL (≈ 4.14 µM)
- MIC (P. maltophilia GIFU 2491): 0.2 µg/mL (≈ 0.531 µM)
- MIC (P. aeruginosa IID 1210): 1.56 µg/mL (≈ 4.14 µM)
- MIC (P. aeruginosa IFO 12689): 1.56 µg/mL (≈ 4.14 µM)
- MIC (B. fragilis 25285; [24]): 1.56 µg/mL (≈ 4.14 µM)
- MIC [12]: 0.39 µg/mL (≈ 1.04 µM)
- MIC (F. varium KYA 8501): 25 µg/mL (≈ 66.4 µM)
- MIC (B. fragilis 0558; [24]): 1.56 µg/mL (≈ 4.14 µM)
- MIC [13]: 0.05 µg/mL (≈ 0.133 µM)
- MIC (S. pyogenes IID 692): 0.39 µg/mL (≈ 1.04 µM)
- MIC [14]: 0.1 µg/mL (≈ 0.266 µM)
- MIC (F. necrophorum S-45): 1.56 µg/mL (≈ 4.14 µM)
- MIC [15]: 0.2 µg/mL (≈ 0.531 µM)
- MIC [16]: 0.78 µg/mL (≈ 2.07 µM)
- MIC [17]: 3.13 µg/mL (≈ 8.32 µM)
- MIC [18]: 0.05 µg/mL (≈ 0.133 µM)
- MIC (E. coli ML 4707): 0.025 µg/mL (≈ 0.0664 µM)
- MIC (Shigella sonnei IID 969): 0.025 µg/mL (≈ 0.0664 µM)
- MIC [19]: 0.2 µg/mL
- MIC (E. faecalis IID 682): 0.2 µg/mL
- MIC [20]: 0.2 µg/mL (≈ 0.531 µM)
- MIC (E. coli ATCC 10536): 0.025 µg/mL (≈ 0.0664 µM)
- MIC (B. vulgatus KYA 29327): 0.78 µg/mL (≈ 2.07 µM)
- MIC [21]: 0.05 µg/mL (≈ 0.133 µM)
- MIC [22]: 0.78 µg/mL (≈ 2.07 µM)
- MIC [23]: 0.78 µg/mL (≈ 2.07 µM)
- MIC (P. cepacia GIFU 518): 1.56 µg/mL (≈ 4.14 µM)
